From patent US20240199601A1, “QUINONE COMPOUND AND PHARMACEUTICAL USE THEREOF” (NANJING SHUPENG LIFE SCIENCE CO., LTD., priority 2021, published 2024)
Entries after “also recorded” stand apart in the source; their conditions may differ. Like-named read-outs stand apart in the source and are kept apart here.

Legend:
[1] = test system: antioxidant transcription factor (Nrf2); experiment: Nrf2 expression in RAW264.7 cells (protein hybridization); type: cell-based; conditions: different concentrations, 24 hours
Description: (§1) RAW264.7 cells were inoculated into two six-well plates and enabled to grow to a density of about 90%, and SP3101 and SP3102 of different concentrations were added, respectively. 24 hours later, the cells were lysed with a radio immunoprecipitation assay (RIPA) lysis buffer, and the expression of proteins was detected by protein hybridization.
(§2) Phosphorylation of serine at the 127th site of AMPK is used as an activation marker. […] It can be seen that the compounds, represented by the SP3101 and the SP3102, of the present invention are used as an AMPK agonist.

AMPK [2] = experiment: AMPK phosphorylation level in a variety of cells; type: cell-based; conditions: 100 nM
[3] = test system: inflammatory pain model (complete Freund's adjuvant); experiment: Inflammatory pain model (complete Freund's adjuvant), mechanical pain threshold; type: in vivo, SD rats; conditions: for duration of the analgesic effect / analgesic effect 1.5 hours after oral administration: single oral dose (SP3101 20 mg/kg); for analgesic effect 1.5 hours after oral administration: mechanical pain threshold vs model group
Description: 4 SD rats with a body weight of 200-250 g were used as a blank control (NC), and normal saline was injected into the soles of the left feet of the rats. Inflammatory pain models of 18 rats were constructed, that is to say, 100 μL of a complete Freund's adjuvant was injected into soles of the left feet of the rats, mechanical pain thresholds of the left feet were detected by an ALMEMO2490 data collector 24 hours later, 2 rats with a pain threshold of greater than 15 were abandoned, and the other 16 rats were randomly divided into 4 groups with 4 rats in each group and then administered with water as a positive control (PC), SP3101 (20 mg/kg), PQQ (20 mg/kg) and ibuprofen (25 mg/kg/day) by gavage, respectively.

[4] = test system: autophagy related protein (LC3B); experiment: LC3B expression in RAW264.7 cells (protein hybridization); type: cell-based; conditions: different concentrations, 24 hours
Description: as §1, §2

AMPK [5] = experiment: AMPK agonist test in RAW264.7 cells (protein hybridization, p-AMPK); type: cell-based; conditions: 0.1 μM, 24 hours
Description: as §1, §2

[6] = beagles; cited from earlier work
[7] = cited from earlier work
acetaldehyde = conditions: 11.5 mg/kg body weight i.p. before ethanol by gavage; cited from earlier work
[8] = test system: chronic constriction injury (CCI) model; conditions: CCI model of rats; cited from earlier work
[9] = cited from earlier work; remark: listed apart in the source
humans = conditions: cited from earlier work
rats = conditions: oral, cited from earlier work
[10] = 20 mg/kg/day orally for three days, rats
[11] = human volunteers, 60 mg/day for one month

Q: Which results are given for `CC(=O)Oc1cc(C(=O)O)c2c(n1)C(=O)C(=O)c1cc[nH]c1-2` [SP3102, 7-acetoxy-4,5-dioxo-4,5-dihydro-1H-pyrrolo[2,3-f]quinone-9-carboxylic acid]?
A: expression of antioxidant transcription factor (Nrf2) [1]: increased in a dose-dependent manner; phosphorylation level of the AMPK (AMPK [2]): significantly up-regulate; duration of the analgesic effect ([3]; rats): 72 h; analgesic effect 1.5 hours after oral administration ([3]; rats): obvious analgesic effect; expression of autophagy related protein (LC3B) [4]: also increased; activation of AMPK (expression of p-AMPK) (AMPK [5]): obviously activate the AMPK

Q: Which “analgesic effect 1.5 hours after each oral administration” value ([3]; 25 mg/kg once a day orally for 3 days, day 1/2/3, rats) does the source give for `CC(C)Cc1ccc(C(C)C(=O)O)cc1` (stereo not drawn) [ibuprofen] here?
A: obvious analgesic effect

Q: And the “analgesic effect before administration” value ([3]; 25 mg/kg once a day orally, rats, data not shown)?
A: no analgesic effect

Q: And the “analgesic effect on the fourth day without administration” value ([3]; after 25 mg/kg once a day orally for 3 days, rats)?
A: no analgesic effect

Q: With `O=C(O)c1cc(C(=O)O)c2c(n1)C(=O)C(=O)c1cc(C(=O)O)[nH]c1-2` [PQQ, 4,5-dihydro-4,5-dioxo-1H-pyrrolo(2,3-f)quinone-2,7,9-tricarboxylic acid] as the compound, how does the bioavailability [6] read?
A: about 12%

Q: What about the solubility in water [7] of the same compound?
A: slightly soluble in water

Q: What about the “phosphorylation level of the AMPK” value (AMPK [2]) of the same compound?
A: significantly up-regulate

Q: And the “analgesic effect 1.5 hours after oral administration on the first day” value [3, 10]?
A: No analgesic effect

Q: And the “analgesic effect on day 2/3/4/5/6/7” value [3, 10]?
A: obvious analgesic effect

Q: What about the “concentration of acetaldehyde vs control group” value (acetaldehyde) of the same compound?
A: much lower concentration of acetaldehyde

Q: And the “concentration of ethanol in the blood and liver vs control group” value (acetaldehyde)?
A: no obvious differences

Q: What about the analgesic effect [8] of the same compound?
A: had an analgesic effect

Q: And the “excreted by the kidney (through urine)” value ([9]; 24 hours after the administration)?
A: 80%

Q: And the “absorbed by the small intestines” value ([9]; after oral administration)?
A: about 60%

Q: What about the “safe dose determined by the FDA (rarely adverse events)” value (humans; healthy adults, body weight about 60 kg, every day) of the same compound?
A: 240 mg

Q: What about the adverse responses (humans; [11]) of the same compound?
A: no adverse responses

Q: And the “changes of kidney injury markers” value (humans; [11])?
A: no changes of kidney injury markers

Q: What about the Adverse response (rats; female rats, 14 days) of the same compound?
A: Reversible; also recorded: Increased kidney; also recorded: Increased urine

Q: What about the “Median lethal dose (LD50)” value (rats; female rats, 14 days) of the same compound?
A: 500-1,000 mg/kg/day

Q: And the Adverse response (rats; female rats, 91 days, 400 mg/kg/day)?
A: None

Q: And the Adverse response (rats; male rats, 14 days)?
A: None

Q: What about the “Median lethal dose (LD50)” value (rats; male rats, 14 days) of the same compound?
A: 1,000-2,000 mg/kg/day

Q: And the Adverse response (rats; male rats, 91 days, 400 mg/kg/day)?
A: None

Q: For `COc1cc(C(=O)O)c2c(n1)C(=O)C(=O)c1cc[nH]c1-2` [SP3103, 7-methoxy-4,5-dioxo-4,5-dihydro-1H-pyrrolo[2,3-f]quinone-9-carboxylic acid], which “duration of the analgesic effect” value ([3]; rats) is on record?
A: 72 h

Q: What about the “analgesic effect 1.5 hours after oral administration” value ([3]; rats) of the same compound?
A: obvious analgesic effect
